In US20260184697A1, “EZH1/2 INHIBITOR, PREPARATION THEREOF, AND USE THEREOF IN ANTI-TUMOR THERAPY” (JIANGSU TASLY DIYI PHARMACEUTICAL CO., LTD., priority 2022, published 2026) one finds IC50 data, which are given here for 26 compounds.

In one experiment the target is T1, EZH2/SUZ/EED (Homo sapiens, UniProt O75530+Q15022+Q15910).
T1 construct: purchased BPS 51003
In words: Inhibitory effect on EZH2 by the MTase-Glo method (Test Example 1). It counts as biochemical. Particulars: EZH2/SUZ/EED 6.25 nM, H3 peptide 10 μM, SAM 3 μM, 30° C. 3 h, read-out: Test Example 1 WT EZH2 IC50. The protocol:
(§1) The compound was dissolved in DMSO, and the compound was serially diluted using ECHO665 and transferred to a 384-well reaction plate (Corning, 3824). A sample containing only DMSO was added as a positive control (maximum signal control) and a negative control (minimum signal control), while ensuring that the final DMSO content in each reaction well was 0.5%. The protein was configured in reaction buffer (50 mM Bicine, 0.01% Triton X-100, 1 mM DTT, 0.01% BSA, pH 7.6), such that the final reaction concentrations of EZH2/SUZ/EED (BPS, 51003) protein solution and EZH1/SUZ/EED (BPS, 51006) were 6.25 nM and 25 nM, respectively. The negative control (minimum signal control) used an equal amount of buffer instead of protein solution. The prepared protein solution was added to the 384-well reaction plate and pre-incubated at room temperature for 15 minutes. The mixture of the substrate H3 peptide fragment (custom-synthesized by GenScript, biotinylated Histone H3(21-44) peptide ([…]-GG-K(Biotin)-OH)) prepared in the reaction buffer and SAM (Promega, V7601) was added into the 384-well plate, such that the final reaction concentration of H3 peptide fragment was 10 μM, and the final concentration of SAM was 3 μM. The mixture was centrifuged at 1000 rpm for 1 min. The 384-well reaction plate was placed in a constant temperature shaker and incubate at 30° C. for 3 h at a speed of 300 rpm. Then the detection reagent was added according to the experimental process of the kit MTase-Glo (Promega, V7601) and incubated.
(§2) After incubation, read with BMG PHERAStar. The luminescence signals obtained by positive control (maximum signal control) and negative control (minimum signal control) were normalized to obtain the inhibition rate of different concentrations of compounds. Then, the IC50 of the compound on the enzyme activity inhibition was calculated by GraphPad Prism 6 with log(inhibitor) vs. response-Variable slope model fitting. The fitting equation is: Y=Bottom+(Top−Bottom)/(1+10^((Log IC50−X)*HillSlope)), wherein Y represents the known percentage remaining enzyme activity, and X represents the known activity after Log compound concentration.

The target in another experiment is T2, EZH1/SUZ/EED (Homo sapiens, UniProt O75530+Q15022+Q92800).
T2 construct: purchased BPS 51006
In words: Inhibitory effect on EZH1 by the MTase-Glo method (Test Example 1). The experiment is classed as biochemical. Conditions: EZH1/SUZ/EED 25 nM, H3 peptide 10 μM, SAM 3 μM, 30° C. 3 h, read-out: Test Example 1 WT EZH1 IC50. The protocol: as §1, §2

For experiment [1], the system named is H3K27Me3 methylation in Karpas-422 cells. In words: H3K27Me3 cell method, inhibition of H3K27Me3 methylation (Test Example 2). It counts as cell-based, human. The protocol: Karpas-422 (Nanjing Kebai, CBP60629) cells were seeded in a 96-well plate (Corning, 3894) at 15,000 cells per well in culture medium (80% 1640 (Hyclone, SH30809.01)+20% FBS (Corning, 35-081-CV)), and then added with different concentrations of compounds for treatment. The cell growth group without adding compounds is used as a positive control (maximum signal control), and the medium is used as a negative control (minimum signal control), while ensuring that in each reaction well, the final concentration of DMSO was 0.2%. Compounds and cells were incubated for 3 days in a cell culture incubator (37° C., 5% CO2). The 96-well plate was taken out from the cell culture incubator and equilibrated to room temperature, and 25 ul of cell suspension was taken out into a 384-well plate. The CCK8 (Beiyuntian, C0040) detection reagent was added, incubated at 37° C. for 1 h, and […] was detected. The rest of the cells followed the procedure of the kit EPIgeneous H3K27Me3 cellular kit (Cisbio, 62KC3PAE) to carry out experiment, read HTRF signal with BMG PHERAStar. […] By GraphPad Prism 6 with log(inhibitor)vs.response-Variable slope model simulation, the IC50 of the compound on cell activity inhibition was calculated. The fitting equation is: Y=Bottom+(Top−Bottom)/(1+10^((Log IC50−X)*HillSlope)), wherein Y represents the inhibition rate, and X represents the known concentration of the compound after Log.

The mark [2] stands for this setting: Homo sapiens, KARPAS-422, 72 h, Karpas-422 cells, 3 days incubation, HTRF signal, read-out: Test Example 2 H3K27Me3 inhibition (Karpas-422) IC50.
Where [3] appears, read: Karpas-422 cells, 3 days incubation, HTRF signal, read-out: Test Example 2 H3K27Me3 inhibition (Karpas-422) IC50.

Like-named read-outs stand apart in the source and are kept apart here.

T1 sequence (Q15910 2-746 limits assumed): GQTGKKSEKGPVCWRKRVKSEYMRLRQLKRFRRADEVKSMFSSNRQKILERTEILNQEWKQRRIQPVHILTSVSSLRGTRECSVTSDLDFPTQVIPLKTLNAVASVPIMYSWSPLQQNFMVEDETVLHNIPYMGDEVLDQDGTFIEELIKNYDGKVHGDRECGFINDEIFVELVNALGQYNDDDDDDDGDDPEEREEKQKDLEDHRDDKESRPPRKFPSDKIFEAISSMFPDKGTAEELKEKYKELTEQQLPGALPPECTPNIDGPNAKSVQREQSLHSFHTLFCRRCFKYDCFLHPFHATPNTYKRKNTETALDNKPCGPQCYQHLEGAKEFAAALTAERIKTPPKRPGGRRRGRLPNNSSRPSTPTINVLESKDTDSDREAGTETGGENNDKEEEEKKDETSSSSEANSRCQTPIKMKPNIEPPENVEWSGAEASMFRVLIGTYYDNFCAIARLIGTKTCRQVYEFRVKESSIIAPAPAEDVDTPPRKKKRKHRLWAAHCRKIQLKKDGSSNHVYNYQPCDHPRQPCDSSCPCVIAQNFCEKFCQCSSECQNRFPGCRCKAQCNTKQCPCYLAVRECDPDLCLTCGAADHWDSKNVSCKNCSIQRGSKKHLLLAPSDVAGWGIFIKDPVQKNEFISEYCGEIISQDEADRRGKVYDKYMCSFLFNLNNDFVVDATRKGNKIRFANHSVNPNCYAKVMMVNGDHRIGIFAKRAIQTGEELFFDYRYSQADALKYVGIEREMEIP
T1 sequence (Q15022 2-739 partner limits assumed): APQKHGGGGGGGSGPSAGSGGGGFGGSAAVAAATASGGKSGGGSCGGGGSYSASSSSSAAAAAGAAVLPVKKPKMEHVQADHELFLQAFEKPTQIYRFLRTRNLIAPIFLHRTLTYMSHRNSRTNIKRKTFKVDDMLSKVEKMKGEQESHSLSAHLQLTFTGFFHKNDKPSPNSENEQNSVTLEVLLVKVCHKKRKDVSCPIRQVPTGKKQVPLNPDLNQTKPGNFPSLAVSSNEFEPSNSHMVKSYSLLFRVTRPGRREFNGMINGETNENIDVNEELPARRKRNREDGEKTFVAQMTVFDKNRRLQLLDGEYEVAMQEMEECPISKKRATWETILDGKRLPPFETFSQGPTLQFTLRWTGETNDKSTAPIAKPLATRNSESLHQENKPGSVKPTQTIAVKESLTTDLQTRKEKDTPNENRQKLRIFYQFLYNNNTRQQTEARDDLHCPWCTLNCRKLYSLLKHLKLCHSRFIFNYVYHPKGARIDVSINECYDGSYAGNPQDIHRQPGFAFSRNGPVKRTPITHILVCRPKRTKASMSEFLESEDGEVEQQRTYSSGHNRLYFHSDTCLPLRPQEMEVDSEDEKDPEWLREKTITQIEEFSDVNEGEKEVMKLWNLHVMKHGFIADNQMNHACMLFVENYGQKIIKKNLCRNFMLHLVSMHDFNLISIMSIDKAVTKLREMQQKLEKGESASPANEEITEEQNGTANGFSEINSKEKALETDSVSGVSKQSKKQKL
T1 sequence (O75530 2-441 partner limits assumed): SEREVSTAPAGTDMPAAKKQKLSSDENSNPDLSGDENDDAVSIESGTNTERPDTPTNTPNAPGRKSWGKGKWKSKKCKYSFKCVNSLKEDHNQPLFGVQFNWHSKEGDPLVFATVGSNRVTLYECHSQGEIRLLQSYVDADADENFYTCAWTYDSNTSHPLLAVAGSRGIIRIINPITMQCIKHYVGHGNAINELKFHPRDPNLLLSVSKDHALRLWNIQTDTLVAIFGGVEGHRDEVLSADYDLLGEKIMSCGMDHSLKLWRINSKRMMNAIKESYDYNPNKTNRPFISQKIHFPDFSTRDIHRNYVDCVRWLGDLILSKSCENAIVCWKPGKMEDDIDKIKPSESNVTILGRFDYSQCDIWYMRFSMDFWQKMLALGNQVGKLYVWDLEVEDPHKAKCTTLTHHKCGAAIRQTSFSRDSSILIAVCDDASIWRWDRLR
T2 sequence (Q92800 2-747 limits assumed): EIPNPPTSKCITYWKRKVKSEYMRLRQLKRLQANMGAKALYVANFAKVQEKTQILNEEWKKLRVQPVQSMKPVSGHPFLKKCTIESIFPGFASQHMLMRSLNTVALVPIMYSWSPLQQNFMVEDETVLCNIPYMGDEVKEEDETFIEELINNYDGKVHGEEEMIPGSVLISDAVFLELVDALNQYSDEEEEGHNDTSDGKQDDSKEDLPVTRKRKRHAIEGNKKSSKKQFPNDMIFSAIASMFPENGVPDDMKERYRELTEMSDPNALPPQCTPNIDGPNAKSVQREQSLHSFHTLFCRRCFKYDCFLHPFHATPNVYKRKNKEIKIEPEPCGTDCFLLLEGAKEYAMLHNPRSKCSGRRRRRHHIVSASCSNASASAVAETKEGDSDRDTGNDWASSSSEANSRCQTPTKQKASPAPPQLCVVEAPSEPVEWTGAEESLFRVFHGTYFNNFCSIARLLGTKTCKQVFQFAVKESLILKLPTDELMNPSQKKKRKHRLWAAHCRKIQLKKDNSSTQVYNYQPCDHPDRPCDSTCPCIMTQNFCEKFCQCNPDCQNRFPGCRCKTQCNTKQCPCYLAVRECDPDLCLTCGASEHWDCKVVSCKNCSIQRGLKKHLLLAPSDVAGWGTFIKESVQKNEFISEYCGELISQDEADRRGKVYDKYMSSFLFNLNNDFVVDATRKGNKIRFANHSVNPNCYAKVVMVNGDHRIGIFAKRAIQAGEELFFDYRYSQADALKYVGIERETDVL
T2 sequence (Q15022 2-739 partner limits assumed): as the sequence (Q15022 2-739 partner limits assumed) above
T2 sequence (O75530 2-441 partner limits assumed): as the sequence (O75530 2-441 partner limits assumed) above

As usually defined, the IC50 is the midpoint of a concentration-inhibition curve. As to `Cc1cc(C)c(CNC(=O)c2cc(Cl)c3c(c2C)OC(C2CCC(N4CC(F)(F)C4)CC2)CO3)c(=O)[nH]1` (single isomer, unassigned) [Compound 57], the concentration for half-maximal inhibition (IC50) at EZH2/SUZ/EED was 21.7 nM; on EZH1/SUZ/EED, 260 nM; in experiment [1] (setting [2]), above 1000 nM.
For the compound `Cc1cc(C)c(CNC(=O)c2cc(Cl)c3c(c2C)OC(C2CCC(N4CC(F)(F)C4)CC2)CO3)c(=O)[nH]1` (single isomer, unassigned) [Compound 58], the IC50 is 35.8 nM at EZH2/SUZ/EED, 2300 nM on EZH1/SUZ/EED and above 1000 nM in experiment [1] (setting [3]).
As to `Cc1cc(C)c(CNC(=O)c2cc(Cl)c3c(c2C)OC(C2CCC(N4CC5COCC5C4)CC2)CO3)c(=O)[nH]1` (single isomer, unassigned) [Compound 59], the results for the IC50 (at EZH2/SUZ/EED; at EZH1/SUZ/EED; in experiment [1] (setting [3])) were 9.6 nM, 7 nM and 233 nM, respectively.
With `Cc1cc(C)c(CNC(=O)c2cc(Cl)c3c(c2C)OC(C2CCC(N4CC5COCC5C4)CC2)CO3)c(=O)[nH]1` (single isomer, unassigned) [Compound 60], the IC50 at EZH2/SUZ/EED was 16.4 nM; at EZH1/SUZ/EED, 94.9 nM; in experiment [1] (setting [3]), above 1000 nM.
With `COC1CN(C2CCC(C3COc4c(Cl)cc(C(=O)NCc5c(C)cc(C)[nH]c5=O)c(C)c4O3)CC2)C1` (single isomer, unassigned) [Compound 62], the IC50 came to 22.1 nM at EZH2/SUZ/EED, 1440 nM on EZH1/SUZ/EED and 504 nM in experiment [1] (setting [3]).
Regarding `Cc1cc(C)c(CNC(=O)c2cc(Cl)c3c(c2C)OC(C2CCC(NC4CC(F)C4)CC2)CO3)c(=O)[nH]1` (single isomer, unassigned) [Compound 64], the values for the IC50 (on EZH2/SUZ/EED; on EZH1/SUZ/EED; in experiment [1] (setting [2])) were 16.6 nM, 254 nM and 896 nM, respectively.
As for `Cc1cc(C)c(CNC(=O)c2cc(Cl)c3c(c2C)OC(C2CCC(N4CC(F)C4)CC2)CO3)c(=O)[nH]1` (single isomer, unassigned) [Compound 70], the IC50 was determined as 22.1 nM at EZH2/SUZ/EED, 177 nM at EZH1/SUZ/EED and 201 nM in experiment [1] (setting [2]).
Take `Cc1cc(C)c(CNC(=O)c2cc(Cl)c3c(c2C)OC(C2CCC(N4CC(OC5CC5)C4)CC2)CO3)c(=O)[nH]1` (single isomer, unassigned) [Compound 76]: the concentration for half-maximal inhibition (IC50) at EZH2/SUZ/EED is 7.6 nM; at EZH1/SUZ/EED it was 270 nM; in experiment [1] (setting [3]), 7.6 nM.
For the compound `Cc1cc(C)c(CNC(=O)c2cc(Cl)c3c(c2C)OC(C2CCC(N4CC(OC5CC5)C4)CC2)CO3)c(=O)[nH]1` (single isomer, unassigned) [Compound 77], the IC50 is 27.3 nM on EZH2/SUZ/EED, 142 nM at EZH1/SUZ/EED and 260 nM in experiment [1] (setting [3]).
Consider `COCCN1CCC([C@H]2COc3c(Cl)cc(C(=O)NCc4c(SC)cc(C)[nH]c4=O)c(C)c3O2)CC1` [Compound 17], for which the results for the IC50 (on EZH2/SUZ/EED; on EZH1/SUZ/EED; in experiment [1] (setting [2])) were 4.6 nM, 16.5 nM and 12 nM, respectively.
With `[2H]C1(OC)CN([C@H]2CC[C@@H]([C@H]3COc4c(Cl)cc(C(=O)NCc5c(SC)cc(C)[nH]c5=O)c(C)c4O3)CC2)C1` [Compound 22], the concentration for half-maximal inhibition (IC50) stood at 2.1 nM on EZH2/SUZ/EED, 2.3 nM at EZH1/SUZ/EED and 1.8 nM in experiment [1] (setting [2]).
For `CSc1cc(C)[nH]c(=O)c1CNC(=O)c1cc(Cl)c2c(c1C)O[C@@H](C1CCN(CCF)CC1)CO2` [Compound 24], in that order: 4.5 nM, 9.2 nM and 9.8 nM.
As to `CSc1cc(C)[nH]c(=O)c1CNC(=O)c1cc(Cl)c2c(c1C)O[C@@H](C1CCN(CC3CCC3)CC1)CO2` [Compound 25], the IC50 at EZH2/SUZ/EED came to 1.6 nM; on EZH1/SUZ/EED, 8.3 nM; in experiment [1] (setting [2]) it was 17.3 nM.
Consider `COCCN(C)[C@H]1CC[C@@H]([C@H]2COc3c(Cl)cc(C(=O)NCc4c(SC)cc(C)[nH]c4=O)c(C)c3O2)CC1` [Compound 26], for which the IC50 at EZH2/SUZ/EED worked out at 2 nM; at EZH1/SUZ/EED it was 5.4 nM; in experiment [1] (setting [2]), 3.4 nM.
Consider `COCCN(C)[C@H]1CC[C@H]([C@H]2COc3c(Cl)cc(C(=O)NCc4c(SC)cc(C)[nH]c4=O)c(C)c3O2)CC1` [Compound 27], for which the IC50 at EZH2/SUZ/EED turned out to be 2.3 nM; at EZH1/SUZ/EED, 14.4 nM; in experiment [1] (setting [2]), 11.4 nM.
In the same order, the values of `CSc1cc(C)[nH]c(=O)c1CNC(=O)c1cc(Cl)c2c(c1C)O[C@@H]([C@H]1CC[C@@H](N3CC4(COC4)C3)CC1)CO2` [Compound 28] are 3.7 nM, 9.4 nM and 8.2 nM.
In the case of `CSc1cc(C)[nH]c(=O)c1CNC(=O)c1cc(Cl)c2c(c1C)O[C@@H]([C@H]1CC[C@H](N3CC4(COC4)C3)CC1)CO2` [Compound 29], the values for the IC50 (at EZH2/SUZ/EED; on EZH1/SUZ/EED; in experiment [1] (setting [2])) were 3.3 nM, 5.8 nM and 34.2 nM, respectively.
Take `CSc1cc(C)[nH]c(=O)c1CNC(=O)c1cc(Cl)c2c(c1C)O[C@@H]([C@H]1CC[C@H](N3CCC3)CC1)CO2` [Compound 33]: the IC50 was 3.6 nM at EZH2/SUZ/EED; 9.4 nM on EZH1/SUZ/EED; 7.7 nM in experiment [1] (Homo sapiens, KARPAS-422, 72 h, read-out: Test Example 2 H3K27Me3 inhibition (Karpas-422) IC50(nM)).
Regarding `CSc1cc(C)[nH]c(=O)c1CNC(=O)c1cc(Cl)c2c(c1C)O[C@@H]([C@H]1CC[C@H](N3CC(CF)C3)CC1)CO2` [Compound 35], the values for the half-inhibitory concentration (IC50) (at EZH2/SUZ/EED; at EZH1/SUZ/EED; in experiment [1] (setting [2])) were 3.4 nM, 7.4 nM and 60.5 nM, respectively.
For `CSc1cc(C)[nH]c(=O)c1CNC(=O)c1cc(Cl)c2c(c1C)O[C@@H]([C@H]1CC[C@@H](NC3(CF)COC3)CC1)CO2` [Compound 36], in that order: 2.4 nM, 9.7 nM and 11 nM.
Take `CSc1cc(C)[nH]c(=O)c1CNC(=O)c1cc(Cl)c2c(c1C)O[C@@H]([C@H]1CC[C@H](NC3(CF)COC3)CC1)CO2` [Compound 37]: the IC50 is 3.1 nM on EZH2/SUZ/EED, 5.9 nM at EZH1/SUZ/EED and 7 nM in experiment [1] (setting [2]).
Turning to `CCS(=O)(=O)N1CCC([C@H]2COc3c(Cl)cc(C(=O)NCc4c(SC)cc(C)[nH]c4=O)c(C)c3O2)CC1` [Compound 38], the figures for the IC50 (on EZH2/SUZ/EED; on EZH1/SUZ/EED; in experiment [1] (setting [2])) were 2.3 nM, 4.7 nM and 11.5 nM, respectively.
In the same order, the values of `COC1C2CN([C@H]3CC[C@@H]([C@H]4COc5c(Cl)cc(C(=O)NCc6c(SC)cc(C)[nH]c6=O)c(C)c5O4)CC3)CC21` (stereo partly drawn) [Compound 43] are 3.6 nM, 4.1 nM and 4.1 nM.
Consider `CSc1cc(C)[nH]c(=O)c1CNC(=O)c1cc(Cl)c2c(c1C)O[C@@H]([C@H]1CC[C@H](N3CC4(CCOC4)C3)CC1)CO2` [Compound 48], for which the half-inhibitory concentration (IC50) was determined as 6 nM at EZH1/SUZ/EED and 27.9 nM in experiment [1] (setting [2]).
In the same order, the values of `COC1CC2CN([C@H]3CC[C@@H]([C@H]4COc5c(Cl)cc(C(=O)NCc6c(SC)cc(C)[nH]c6=O)c(C)c5O4)CC3)CC2C1` (stereo partly drawn) [Compound 49] are 2.2 nM and 2.8 nM.
In the same order, the values of `COC1CC2CN([C@H]3CC[C@H]([C@H]4COc5c(Cl)cc(C(=O)NCc6c(SC)cc(C)[nH]c6=O)c(C)c5O4)CC3)CC2C1` (stereo partly drawn) [Compound 50] are 11.8 nM and 23.8 nM.
